According to PMC5800971 (European journal of medicinal chemistry, 2017):

Assays:
[1] = system: breast cancer cell line MDA-MB-231; assay: Alamar Blue cytotoxicity assay; format: cell-based; details: for fold less potent than ipomoeassin F: MDA-MB-231
[2] = system: MCF7 breast cancer cell line; assay: Colorimetric MTT cytotoxicity assay; format: cell-based
[3] = system: human breast epithelial cell line MCF-10A; assay: Alamar Blue cytotoxicity assay; format: cell-based; details: MCF-10A vs MDA-MB-231 / MCF7
[4] = system: A2780 human ovarian cancer cell line; assay: Cytotoxicity of ipomoeassins A-F; format: cell-based; details: from Table 1 values
[5] = system: A2780 human ovarian cancer cell line; details: read-out: IC50 (nM) A2780; A2780 human ovarian cancer cells; cited from earlier work

C/C=C(\C)C(=O)O[C@@H]1[C@@H](O)[C@@H]2O[C@H]3[C@H](O[C@@H](CCCCC)CCCCCOC(=O)CCC(=O)OC[C@@H](O2)[C@H]1OC(=O)/C=C/c1ccccc1)O[C@H](C)[C@H](OC(C)=O)[C@@H]3O [Analogue 1]
fold less potent than ipomoeassin F [1]: about 4 fold | fold less potent than ipomoeassin F [2]: ~2 fold

C/C=C(\C)C(=O)O[C@@H]1[C@@H](O)[C@@H]2O[C@H]3[C@H](O[C@@H](CCCCC)CCCCCNC(=O)CCC(=O)OC[C@@H](O2)[C@H]1OC(=O)/C=C/c1ccccc1)O[C@H](C)[C@H](OC(C)=O)[C@@H]3O [Analogue 2]
selectivity between tumor and non-tumor cells [3]: slight selectivity towards MDA-MB-231 cells

C/C=C(\C)C(=O)O[C@@H]1[C@@H](O)[C@@H]2O[C@H]3[C@H](O[C@@H](CCCCC)CCCCCN(C)C(=O)CCC(=O)OC[C@@H](O2)[C@H]1OC(=O)/C=C/c1ccccc1)O[C@H](C)[C@H](OC(C)=O)[C@@H]3O [Analogue 21]
fold less potent than ipomoeassin F [1]: ≤ 2 fold | fold less potent than ipomoeassin F [2]: ≤ 2 fold

C/C=C(\C)C(=O)O[C@@H]1[C@@H](O)[C@@H]2O[C@H]3[C@H](O[C@@H](CCCCC)C/C=C\CCOC(=O)CCC(=O)OC[C@@H](O2)[C@H]1OC(=O)/C=C/c1ccccc1)O[C@H](C)[C@H](OC(C)=O)[C@@H]3O [Analogue 24]
fold more potent than the E-counterpart 23 ([1]; breast cancer cell lines of Table 2 (MDA-MB-231, MCF7)): ~ 3 fold

C/C=C(\C)C(=O)O[C@@H]1[C@@H](O)[C@@H]2O[C@H]3[C@H](O[C@@H](CCCCC)CCCCOC(=O)CCC(=O)OC[C@@H](O2)[C@H]1OC(=O)/C=C/c1ccccc1)O[C@H](C)[C@H](OC(C)=O)[C@@H]3O [Analogue 25]
fold activity loss compared to 1 ([1]; MDA-MB-231 (printed MBA-BD-231)): 9 fold | fold activity loss compared to 1 [2]: 9 fold

C/C=C(\C)C(=O)O[C@@H]1[C@@H](O)[C@@H]2O[C@H]3[C@H](O[C@@H](CCC)CCCCC[C@H](O)C(=O)CCC(=O)OC[C@@H](O2)[C@H]1OC(=O)/C=C/c1ccccc1)O[C@H](C)[C@H](OC(C)=O)[C@@H]3O [Ipomoeassin C]
fold activity difference between ipomoeassin C and ipomoeassin A/D [4]: up to 80 fold

C/C=C(\C)C(=O)O[C@@H]1[C@@H](O)[C@@H]2O[C@H]3[C@H](O[C@@H](CCC)CCCCC[C@H](OC(C)=O)C(=O)CCC(=O)OC[C@@H](O2)[C@H]1OC(=O)/C=C/c1ccccc1)O[C@H](C)[C@H](OC(C)=O)[C@@H]3O [Ipomoeassin D]
fold potency enhancement, R1 H to OAc (A vs. D) ([4]; A2780): up to 14 fold

C/C=C(\C)C(=O)O[C@@H]1[C@@H](O)[C@@H]2O[C@H]3[C@H](O[C@@H](CCC)CCCCC[C@H](OC(C)=O)C(=O)CCC(=O)OC[C@@H](O2)[C@H]1OC(=O)/C=C/c1ccccc1)O[C@H](C)[C@H](O)[C@@H]3O [Ipomoeassin E]
fold activity loss, R1 H to OAc (B vs. E) ([4]; A2780): 8 fold | IC50 [5]: 3300 nM
